Measured values published in BigSolDB 2.1.

CCOC(=O)[C@@H](N)Cc1ccccc1.Cl
solubility (mole fraction)
Conditions	283.15 K	288.15 K	293.15 K	298.15 K	303.15 K	308.15 K	313.15 K	318.15 K	323.15 K
in 1,4-dioxane	–	0.0023	0.00301	0.0037	0.00498	0.00668	0.00876	0.0115	0.0148
in 2-butoxyethanol	0.035	0.039	0.0435	0.0473	0.052	0.0575	0.0633	0.0695	0.076
in 2-propoxyethanol	0.042	0.0472	0.052	0.0557	0.0616	0.0675	0.0738	0.08	0.087
in THF	0.00079	0.00102	0.00127	0.0016	0.00204	0.00257	0.00316	0.00398	0.00491
in isopropanol	0.0074	0.00934	0.0117	0.0147	0.0189	0.0227	0.0278	0.0337	0.0413
in n-butanol	0.0176	0.0218	0.0262	0.032	0.0355	0.0417	0.0509	0.0601	0.0696
in n-propanol	0.0272	0.0316	0.0367	0.0423	0.0491	0.0566	0.0656	0.0734	0.0838
